Data on 22 compounds can be found in patent publication US9586951B2 (FUJIFILM Corporation, priority 2013, dated 2017).

For assay [1], the target named is T1, ATM (Homo sapiens, UniProt Q13315).
T1 construct: detecting phosphorylation of Chk2 in a human non-small cell lung cancer cell line NCI-H460 (ATCC company); host or cells: NCI-H460 human non-small cell lung cancer cells
Kind of assay: ATM inhibition test (phosphorylation of Chk2 generated by ionizing radiation, AlphaScreen SureFire). The settings on record: phosphorylated Chk2 in NCI-H460 cells, ionizing radiation 8Gy, 1 hour after test compound treatment; read-out: ATM inhibitory activity. It is filed as cell-based. Summed up: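 Human NCI-H460 lung cancer cells were treated with compound for 1 h, then irradiated at 8Gy and incubated 1 h at 37° C. Phospho-Chk2 was quantified by AlphaScreen SureFire; inhibition % was normalised between irradiated untreated and non-irradiated untreated wells.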

Assay [2] concerns human non-small cell lung cancer cell line NCI-H460. Kind of assay: Cell proliferation inhibition test by sensitivity-enhancing to ionizing radiation (Cell Titer Glo). It is filed as cell-based. The settings on record: concentration in which SER became 2, NCI-H460 cells, ionizing radiation 2 Gy, cultured 120 hour. On the procedure:
A human non-small cell lung cancer cell line NCI-H460 (ATCC company) was adjusted so as to be 2×10^3 cells/mL in a RPMI-1640 medium containing penicillin/streptomycin and FBS having a final concentration of 10%, and this was seeded by 100 μL per well in 96-well CellBIND® plates (Corning International Inc.). After 24 hours, the medium of cells was replaced with 100 μL of a medium including serially diluted liquid of the test compound or DMSO having a final concentration of 0.1%. 30 minutes after the medium was replaced, half of the plates were irradiated with ionizing radiation 2 Gy (Faxitron Bioptics, LLC, RX-650 type). The cells of the plates irradiated with ionizing radiation and the plates not being irradiated with ionizing radiation were cultured at 37° C. for 120 hour in 5% CO2. After a Cell Titer Glo reaction liquid of an equal volume was added to each well, the amount of luminescence was measured, according to the instruction book of Cell Titer Glo (Promega Corporation). Since the amount of luminescence is proportional to the ATP concentration in cells, the amount of luminescence was used as an indicator of the number of viable cells. Sensitivity-enhancing effects (SER) to ionizing radiation by the test compound was calculated by the following equation. SER=(amount of luminescence of wells including DMSO having a final concentration of 0.1% in the plates irradiated with ionizing radiation×amount of luminescence of wells including a compound in the plates not being irradiated with ionizing radiation)/(amount of luminescence of wells including the test compound in the plates irradiated with ionizing radiation×amount of luminescence of wells including DMSO having a final concentration of 0.1% in the plates not being irradiated with ionizing radiation)
SER at each compound concentration was plotted by nonlinear regression fit (FitModel (205)) by a sigmoidal dose-response equation using XLfit software (IDBS), and the concentration (SER2) in which SER became 2 was calculated.

T1 sequence (Q13315 whole entry): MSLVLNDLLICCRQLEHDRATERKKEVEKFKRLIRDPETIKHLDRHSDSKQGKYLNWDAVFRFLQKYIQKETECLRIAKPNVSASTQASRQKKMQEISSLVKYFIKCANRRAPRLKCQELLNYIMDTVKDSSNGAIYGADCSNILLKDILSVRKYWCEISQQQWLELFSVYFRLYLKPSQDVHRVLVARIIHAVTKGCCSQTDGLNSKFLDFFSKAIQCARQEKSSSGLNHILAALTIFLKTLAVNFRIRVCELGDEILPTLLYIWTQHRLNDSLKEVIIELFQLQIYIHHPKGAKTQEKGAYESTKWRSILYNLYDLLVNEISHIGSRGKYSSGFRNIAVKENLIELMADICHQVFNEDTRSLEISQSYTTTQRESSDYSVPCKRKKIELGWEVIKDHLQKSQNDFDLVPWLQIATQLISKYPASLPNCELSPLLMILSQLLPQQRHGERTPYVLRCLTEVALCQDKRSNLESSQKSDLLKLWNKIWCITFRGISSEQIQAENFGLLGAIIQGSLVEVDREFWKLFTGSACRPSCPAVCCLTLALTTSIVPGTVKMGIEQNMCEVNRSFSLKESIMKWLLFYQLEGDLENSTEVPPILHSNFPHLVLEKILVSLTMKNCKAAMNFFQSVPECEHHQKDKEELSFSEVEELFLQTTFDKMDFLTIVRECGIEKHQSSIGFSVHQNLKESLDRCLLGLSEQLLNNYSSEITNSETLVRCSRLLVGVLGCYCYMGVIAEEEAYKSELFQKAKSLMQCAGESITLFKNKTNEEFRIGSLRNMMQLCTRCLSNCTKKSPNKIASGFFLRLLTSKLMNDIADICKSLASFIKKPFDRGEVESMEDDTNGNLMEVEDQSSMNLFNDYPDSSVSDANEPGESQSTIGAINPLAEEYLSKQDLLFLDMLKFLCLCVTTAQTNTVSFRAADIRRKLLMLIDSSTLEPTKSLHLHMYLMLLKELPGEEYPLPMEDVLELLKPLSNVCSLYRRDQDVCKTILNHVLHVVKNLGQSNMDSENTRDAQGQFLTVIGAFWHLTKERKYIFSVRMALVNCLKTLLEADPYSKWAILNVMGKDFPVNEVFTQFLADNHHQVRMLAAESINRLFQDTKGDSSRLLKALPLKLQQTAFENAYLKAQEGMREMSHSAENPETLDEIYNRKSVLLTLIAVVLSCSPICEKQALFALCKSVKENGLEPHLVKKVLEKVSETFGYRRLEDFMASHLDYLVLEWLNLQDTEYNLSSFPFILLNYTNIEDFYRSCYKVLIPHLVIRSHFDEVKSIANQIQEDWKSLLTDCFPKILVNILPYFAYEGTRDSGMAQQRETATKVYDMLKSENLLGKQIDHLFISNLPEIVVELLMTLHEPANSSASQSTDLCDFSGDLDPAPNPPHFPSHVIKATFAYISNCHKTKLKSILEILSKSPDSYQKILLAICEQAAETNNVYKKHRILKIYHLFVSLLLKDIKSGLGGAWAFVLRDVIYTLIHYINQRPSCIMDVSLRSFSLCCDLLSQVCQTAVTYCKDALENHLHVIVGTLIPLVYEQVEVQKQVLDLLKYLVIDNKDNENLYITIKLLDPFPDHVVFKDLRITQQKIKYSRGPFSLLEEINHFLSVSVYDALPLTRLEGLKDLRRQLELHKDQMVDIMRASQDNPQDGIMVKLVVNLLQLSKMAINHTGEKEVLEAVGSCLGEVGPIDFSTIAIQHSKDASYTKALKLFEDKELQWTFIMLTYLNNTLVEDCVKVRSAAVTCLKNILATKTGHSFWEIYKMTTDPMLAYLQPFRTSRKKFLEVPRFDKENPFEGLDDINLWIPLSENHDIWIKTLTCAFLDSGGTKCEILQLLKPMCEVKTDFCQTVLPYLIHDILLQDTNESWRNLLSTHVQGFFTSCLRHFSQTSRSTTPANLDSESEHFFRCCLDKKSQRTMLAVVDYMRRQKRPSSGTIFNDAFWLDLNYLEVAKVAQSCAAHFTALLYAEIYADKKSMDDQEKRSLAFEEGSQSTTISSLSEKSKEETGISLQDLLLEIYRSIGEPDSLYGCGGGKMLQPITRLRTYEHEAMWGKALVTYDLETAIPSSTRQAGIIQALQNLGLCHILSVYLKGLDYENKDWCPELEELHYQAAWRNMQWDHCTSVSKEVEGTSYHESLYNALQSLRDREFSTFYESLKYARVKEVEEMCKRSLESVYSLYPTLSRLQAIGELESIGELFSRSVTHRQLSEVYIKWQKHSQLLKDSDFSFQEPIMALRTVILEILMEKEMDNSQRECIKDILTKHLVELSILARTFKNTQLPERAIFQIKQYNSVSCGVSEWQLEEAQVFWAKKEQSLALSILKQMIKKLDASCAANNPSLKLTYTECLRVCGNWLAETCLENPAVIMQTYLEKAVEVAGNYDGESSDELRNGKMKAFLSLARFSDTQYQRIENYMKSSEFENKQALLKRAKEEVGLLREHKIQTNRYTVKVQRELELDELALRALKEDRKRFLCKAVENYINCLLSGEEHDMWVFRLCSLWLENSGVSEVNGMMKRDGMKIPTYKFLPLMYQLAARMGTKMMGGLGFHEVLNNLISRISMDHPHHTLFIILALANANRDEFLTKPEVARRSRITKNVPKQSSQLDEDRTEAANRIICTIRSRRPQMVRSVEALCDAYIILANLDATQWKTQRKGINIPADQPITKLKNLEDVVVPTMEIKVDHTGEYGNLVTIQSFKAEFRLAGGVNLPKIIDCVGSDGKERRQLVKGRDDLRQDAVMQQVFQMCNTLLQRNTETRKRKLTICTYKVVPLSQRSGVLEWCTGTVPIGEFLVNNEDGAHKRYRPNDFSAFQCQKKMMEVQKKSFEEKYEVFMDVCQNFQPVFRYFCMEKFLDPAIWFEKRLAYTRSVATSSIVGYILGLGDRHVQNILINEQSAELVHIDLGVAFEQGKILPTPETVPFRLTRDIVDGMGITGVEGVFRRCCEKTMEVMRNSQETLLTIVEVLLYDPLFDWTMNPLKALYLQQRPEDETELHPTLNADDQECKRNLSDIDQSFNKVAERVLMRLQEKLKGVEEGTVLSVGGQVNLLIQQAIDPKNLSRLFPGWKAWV

In the case of `COCCCC(Nc1ccc2c(c1)Sc1cccc(-c3cc(N4CCOCC4)cc(=O)[nH]3)c1S2)c1ccc(C)cn1` (centres unmarked) [Example 1-12-130, 6-(7-((4-Methoxy-1-(5-methylpyridin-2-yl)butyl)amino)thianthren-1-yl)-4-morpholino pyridin-2(1H)-one], the IC50 in assay [1] was less than 100 nM. Moreover, the SER2 (concentration at which the radiation sensitivity-enhancement ratio reaches 2) in assay [2] (Homo sapiens, NCI-H460, 120 h) lay in the range of 100 to 500 nM.
As to `COc1cc(OC)nc(CNc2ccc3c(c2)Cc2cccc(-c4cc(N5CCOCC5)cc(=O)[nH]4)c2O3)n1` [Example 2-2-51, 6-(7-(((4,6-Dimethoxypyrimidin-2-yl)methyl)amino)-9H-xanthen-4-yl)-4-morpholino pyridin-2 (1H)-one], the IC50 in assay [1] is less than 100 nM. Also, in assay [2] (Homo sapiens, NCI-H460, 120 h), the SER2 (concentration at which the radiation sensitivity-enhancement ratio reaches 2) fell in the range of 500 to 2000 nM.
For the compound `COC(C)(C)c1cncc(CNc2ccc3c(c2)Cc2cccc(-c4cc(N5CCOCC5)cc(=O)[nH]4)c2O3)c1` [Example 2-14-12, 6-(7-(((5-(2-Methoxypropan-2-yl)pyridin-3-yl)methyl)amino)-9H-xanthen-4-yl)-4-morpholino pyridin-2 (1H)-one], the IC50 in assay [1] was less than 100 nM. Besides, in assay [2] (Homo sapiens, NCI-H460, 120 h), the SER2 (concentration at which the radiation sensitivity-enhancement ratio reaches 2) fell in the range of 100 to 500 nM.
For `COc1ccc(CNc2ccc3c(c2)Sc2cccc(-c4cc(N5CCOCC5)cc(=O)[nH]4)c2O3)nc1` [Example 4-8-17, 6-(8-(((5-Methoxypyridin-2-yl)methyl)amino)phenoxathiin-4-yl)-4-morpholino pyridin-2(1H)-one], in that order: less than 100 nM and 100 to 500 nM.
In the case of `Cc1cccc(C(CCN(C)C)Nc2ccc3c(c2)Sc2cccc(-c4cc(N5CCOCC5)cc(=O)[nH]4)c2S3)n1` (centres unmarked) [Example 1-22-1, 6-(7-((3-(dimethylamino)-1-(6-methylpyridin-2-yl)propyl)amino)thianthren-1-yl)-4-morpholinopyridin-2(1H)-one], in assay [1], the IC50 is less than 100 nM. The SER2 (concentration at which the radiation sensitivity-enhancement ratio reaches 2) in assay [2] (Homo sapiens, NCI-H460, 120 h) lay in the range of 100 to 500 nM.
Consider `Cc1ccc(C(Nc2ccc3c(c2)Sc2cccc(-c4cc(N5CCOCC5)cc(=O)[nH]4)c2S3)[C@H]2CN(CCN(C)C)CCO2)nc1` (single isomer, unassigned) [Example 10-2], for which the IC50 in assay [1] was less than 100 nM. Also, the SER2 (concentration at which the radiation sensitivity-enhancement ratio reaches 2) in assay [2] (Homo sapiens, NCI-H460, 120 h) is less than 100 nM.
On to `CNCC(Nc1ccc2c(c1)Sc1cccc(-c3cc(N4CCOCC4)cc(=O)[nH]3)c1S2)c1cc(C)ccn1` (centres unmarked) [Example 1-19-3, 6-(7-((2-(Methylamino)-1-(4-methylpyridin-2-yl)ethyl)amino)thianthren-1-yl)-4-morpholinopyridin-2(1H)-one], for which, in assay [1], the IC50 was less than 100 nM. For the same compound, the SER2 (concentration at which the radiation sensitivity-enhancement ratio reaches 2) in assay [2] (Homo sapiens, NCI-H460, 120 h) fell in the range of 100 to 500 nM.
In the case of `CCOc1ccnc(CNc2ccc3c(c2)Cc2cccc(-c4cc(N5CCOCC5)cc(=O)[nH]4)c2O3)c1` [Example 2-13-11, 6-(7-(((4-Ethoxypyridin-2-yl)methyl)amino)-9H-xanthen-4-yl)-4-morpholino pyridin-2(1H)-one], the IC50 in assay [1] was less than 100 nM. In addition, in assay [2] (Homo sapiens, NCI-H460, 120 h), the SER2 (concentration at which the radiation sensitivity-enhancement ratio reaches 2) fell in the range of 100 to 500 nM.
On to `N#Cc1ccnc(CNc2ccc3c(c2)Cc2cccc(-c4cc(N5CCOCC5)cc(=O)[nH]4)c2O3)c1` [Example 2-14-11, 2-(((5-(4-Morpholino-6-oxo-1,6-dihydropyridin-2-yl)-9H-xanthen-2-yl)amino)methyl) isonicotinonitrile], for which the IC50 in assay [1] was less than 100 nM. In addition, the SER2 (concentration at which the radiation sensitivity-enhancement ratio reaches 2) in assay [2] (Homo sapiens, NCI-H460, 120 h) was 100 to 500 nM.
Regarding `Cc1cnc(C(C)Nc2ccc3c(c2)Sc2cccc(-c4cc(N5CCOCC5)cc(=O)[nH]4)c2S3)nc1` (single isomer, unassigned) [Example 1-12-139-1, 6-(7-((1-(5-methylpyrimidin-2-yl)ethyl)amino)thianthren-1-yl)-4-morpholinopyridin-2(1H)-one], in assay [1], the IC50 is less than 100 nM. Besides, the SER2 (concentration at which the radiation sensitivity-enhancement ratio reaches 2) in assay [2] (Homo sapiens, NCI-H460, 120 h) was less than 100 nM.
For the compound `O=c1cc(N2CCOCC2)cc(-c2c(F)ccc3c2Oc2ccc(NCc4cccc(Cl)n4)cc2C3)[nH]1` [Example 2-46-1, 6-(7-(((6-Chloropyridin-2-yl)methyl)amino)-3-fluoro-9H-xanthen-4-yl)-4-morpholinopyridin-2(1H)-one], in assay [1], the IC50 is less than 100 nM. The SER2 (concentration at which the radiation sensitivity-enhancement ratio reaches 2) in assay [2] (Homo sapiens, NCI-H460, 120 h) is less than 100 nM.
For the compound `COCC(Nc1ccc2c(c1)Sc1cccc(-c3cc(N4CCOCC4)cc(=O)[nH]3)c1S2)c1ccc(C)cn1` (centres unmarked) [Example 1-12-100, 6-(7-((2-Methoxy-1-(5-methylpyridin-2-yl)ethyl)amino)thianthren-1-yl)-4-morpholino pyridin-2(1H)-one], in assay [1], the IC50 was less than 100 nM. Also, in assay [2] (Homo sapiens, NCI-H460, 120 h), the SER2 (concentration at which the radiation sensitivity-enhancement ratio reaches 2) is less than 100 nM.
With `O=c1cc(N2CCOCC2)cc(-c2cccc3c2Oc2ccc(NCc4cncc(N5CCCC5)c4)cc2S3)[nH]1` [Example 4-4-7, 4-Mmorpholino-6-(8-(((5-(pyrrolidin-1-yl)pyridin-3-yl)methyl)amino)phenoxathiin-4-yl)pyridin-2(1H)-one], in assay [1], the IC50 was less than 100 nM. The SER2 (concentration at which the radiation sensitivity-enhancement ratio reaches 2) in assay [2] (Homo sapiens, NCI-H460, 120 h) lay within 100 to 500 nM.
As for `Cc1cnc(C(C)Nc2ccc3c(c2)Sc2cccc(-c4cc(N5CCOCC5)cc(=O)[nH]4)c2S3)cn1` (single isomer, unassigned) [Example 1-12-137-2, 6-(7-((1-(5-methylpyrazin-2-yl)ethyl)amino)thianthren-1-yl)-4-morpholinopyridin-2(1H)-one], the IC50 in assay [1] was less than 100 nM. The SER2 (concentration at which the radiation sensitivity-enhancement ratio reaches 2) in assay [2] was in the range of 100 to 500 nM.
As for `[2H]C([2H])([2H])C(Nc1ccc2c(c1)Sc1cccc(-c3cc(N4CCOCC4)cc(=O)[nH]3)c1S2)c1cccc(F)n1` (centres unmarked) [Example 1-12-134, 4-Morpholino-6-(7-((2,2,2-trideutero-1-(6-fluoropyridin-2-yl)ethyl)amino)thianthren-1-yl) pyridin-2(1H)-one], the IC50 in assay [1] was less than 100 nM. The SER2 (concentration at which the radiation sensitivity-enhancement ratio reaches 2) in assay [2] (Homo sapiens, NCI-H460, 120 h) lay in the range of 100 to 500 nM.
As for `CC(CNc1ccc2c(c1)Sc1cccc(-c3cc(N4CCOCC4)cc(=O)[nH]3)c1S2)N1CCOCC1` (racemic) [Example 1-9-2-1, 4-Morpholino-6-(7-((2-morpholinopropyl)amino)thianthren-1-yl)pyridin-2(1H)-one], the IC50 in assay [1] is less than 100 nM. Moreover, in assay [2] (Homo sapiens, NCI-H460, 120 h), the SER2 (concentration at which the radiation sensitivity-enhancement ratio reaches 2) lay within 100 to 500 nM.
With `CCC(Nc1ccc2c(c1)Cc1cccc(-c3cc(N4CCOCC4)cc(=O)[nH]3)c1O2)c1cncc(OC)c1` (centres unmarked) [Example 2-14-16, 6-(7-((1-(5-Methoxypyridin-3-yl)propyl)amino)-9H-xanthen-4-yl)-4-morpholino pyridin-2 (1H)-one], the IC50 in assay [1] is less than 100 nM. The SER2 (concentration at which the radiation sensitivity-enhancement ratio reaches 2) in assay [2] (Homo sapiens, NCI-H460, 120 h) is less than 100 nM.
Turning to `CC(CN1CCN(c2ccccc2)CC1)Nc1ccc2c(c1)Sc1cccc(-c3cc(N4CCOCC4)cc(=O)[nH]3)c1S2` (centres unmarked) [Example 1-13-15, 4-Morpholino-6-(7-((1-(4-phenylpiperazin-1-yl)propan-2-yl)amino)thianthren-1-yl)pyridin-2 (1H)-one], in assay [1], the IC50 is less than 100 nM. Further, the SER2 (concentration at which the radiation sensitivity-enhancement ratio reaches 2) in assay [2] (Homo sapiens, NCI-H460, 120 h) was in the range of 100 to 500 nM.
Take `COc1ccnc(CNc2ccc3c(c2)Cc2cccc(-c4cc(N5CCOCC5)cc(=O)[nH]4)c2O3)c1` [Example 2-2-38, 6-(7-(((4-Methoxypyridin-2-yl)methyl)amino)-9H-xanthen-4-yl)-4-morpholino pyridin-2(1H)-one]: in assay [1], the IC50 is less than 100 nM. In addition, the SER2 (concentration at which the radiation sensitivity-enhancement ratio reaches 2) in assay [2] (Homo sapiens, NCI-H460, 120 h) is 100 to 500 nM.
With `COc1cncc(CNc2ccc3c(c2)Sc2cccc(-c4cc(N5CCOCC5)cc(=O)[nH]4)c2S3)c1` [Example 1-44-1, 6-(7-(((5-methoxypyridin-3-yl)methyl)amino)thianthren-1-yl)-4-morpholinopyridin-2(1H)-one], the IC50 in assay [1] is less than 100 nM. In addition, the SER2 (concentration at which the radiation sensitivity-enhancement ratio reaches 2) in assay [2] (Homo sapiens, NCI-H460, 120 h) lay in the range of 500 to 2000 nM.
In the case of `O=c1cc(N2CCOCC2)cc(-c2cccc3c2Oc2ccc(NCc4ccnc(F)c4)cc2C3)[nH]1` [Example 2-21-2, 6-(7-(((2-Fluoropyridin-4-yl)methyl)amino)-9H-xanthen-4-yl)-4-morpholinopyridin-2 (1H)-one], in assay [1], the IC50 is less than 100 nM. In addition, the SER2 (concentration at which the radiation sensitivity-enhancement ratio reaches 2) in assay [2] (Homo sapiens, NCI-H460, 120 h) was 100 to 500 nM.
In the case of `O=c1cc(N2CCOCC2)cc(-c2cccc3c2Sc2ccc(NC4CCN(Cc5cccnc5)CC4)cc2S3)[nH]1` [Example 1-24-17, 4-Morpholino-6-(7-((1-(pyridin-3-ylmethyl)piperidin-4-yl)amino)thianthren-1-yl)pyridin-2 (1H)-one], the IC50 in assay [1] was less than 100 nM. Further, the SER2 (concentration at which the radiation sensitivity-enhancement ratio reaches 2) in assay [2] (Homo sapiens, NCI-H460, 120 h) was in the range of 100 to 500 nM.
